Measurements: PMC11219871, “Epigenetic-based differentiation therapy for Acute Myeloid Leukemia” (Nature Communications, 2024)
Where “and” joins values, the source holds several entries; their conditions need not be identical. Equal values may be shown once.

Legend:
[1] = tested on: HL-60, ML-2, MOLM-13 and MV4-11; assay: γ-H2AX immunofluorescence (DNA damage); type: cell-based; conditions: daily treatment 48 hours, four AML cell lines
Method: authors should analyze this e.g by gH2AX immunofluorescence staining.
As positive control, HL-60 cells irradiated with an acute dose of 30 J/m2 UV for 2 minutes were
(see Reviewer Figure 22).

[2] = tested on: MV4-11 xenograft in BALB/cA Rag2-/-γc-/- mice; assay: Subcutaneous xenograft model (tumor volume, CD11b q-PCR, H3Ac, body weight); type: in vivo, mouse; conditions: for Tumor volume: MV4-11 subcutaneous xenograft, in mm³; for Tumor volume / body weight of mice: individual mice; for body weight of mice: subcutaneous MV4-11 AML mouse model
Method: (§1) The subcutaneous xenograft models of ML-2 and MV4-11 derived cells, 5 × 10^6 and 10 × 10^6 cells, respectively, diluted in 100 µL of saline solution were subcutaneously inoculated in the back left flank of female BALB/cA Rag2^−/−γc^−/− mice. When tumors became palpable, the mice were randomized into three groups: vehicle, CM-444 and CM-1758, (eight animals/group). Treatment with 10 mg/kg of CM-444 or CM-1758 i.p. was started 4 days after injection when all mice presented subcutaneous tumors and was administered for 5 consecutive days followed by 2 resting days over 3 weeks for the ML-2 model or daily for 2 weeks for the MV4-11 model. The control group received only 80% saline solution, 10% DMSO […] 10% Tween 20 (diluents of CM-444 and CM-1758). Tumor size was analyzed every 2–3 days using the following method: […], where D and d corresponded to the longest and shortest diameter, respectively. The maximal tumor size/burden permitted by the Animal Care and Ethics Committee of the University of Navarra is 2000 mm^3. This maximal tumor size/burden was not exceeded in any case. ML-2 and MV4-11 tumors were explanted for differentiation and global histone acetylation analysis. Histones were extracted, and a western blot of H3Ac was performed as described above. For the differentiation study, RNA was extracted, and q-PCR of CD11b was performed as described above (CD11b sequence primer can be found in Supplementary Table 10).

[3] = tested on: ML-2 xenograft in BALB/cA Rag2-/-γc-/- mice; assay: as above; type: in vivo, mouse; conditions: for Tumor volume: ML-2 subcutaneous xenograft, individual mice (Fig 3B); for body weight of mice: subcutaneous ML-2 AML mouse model, individual mice
Method: as §1

[4] = tested on: MOLM-13 i.v. in BALB/cA Rag2-/-γc-/- mice; assay: Intravenous xenograft model (survival, CD11b in blood, body weight); type: in vivo, mouse; conditions: for Body weight: intravenous MOLM-13 AML mouse model, individual mice
Method: (§2) The human AML MV4-11 and MOLM-13 xenograft mice models were generated by intravenous (i.v.) injection of 10 × 10^6 (MV4-11) or 1 × 10^4 (MOLM-13) cells diluted in 100 µL of saline solution in the tail vein of a 6-8-week-old female BALB/cA Rag2^−/−γc^−/− mice (n = 10). Treatment started 7 or 1 day after MV4-11 or MOLM-13 cells injection, respectively. MV4-11 and MOLM-13 mice were treated with i.p. 10 mg/kg of CM-444 and CM-1758 during 5 consecutive days followed by 2 resting days for 7 and 2 weeks, respectively. The control group received only 80% saline solution, 10% DMSO and 10% Tween 20 (diluents of CM-444 and CM-1758). The mice weight was controlled and remained stable during the treatment. Statistical results were calculated using the statistical software Medcalc. CD11b levels in blood samples from an intravenous MV4-11 mice model were measured by flow cytometry, as described above.

[5] = tested on: MV4-11 i.v. in BALB/cA Rag2-/-γc-/- mice; assay: as above; type: in vivo, mouse; conditions: for body weight of mice: intravenous MV4-11 AML mouse model, individual mice
Method: as §2

## COc1cc2nc(-c3ccc(C)o3)cc(NCC3CCN(c4ncc(C(=O)NO)cn4)CC3)c2cc1OC [CM-444, 2-[4-[[[6,7-dimethoxy-2-(5-methyl-2-furyl)-4-quinolyl]amino]methyl]-1-piperidyl]pyrimidine-5-carbohydroxamic acid]
[1]
  DNA damage (γ-H2AX): do not induced DNA damage
[2]; MV4-11 s.c., 10 mg/kg i.p.
  CD11b expression in explanted tumors: significant increase in CD11b expression
  H3Ac levels in tumors: increase in H3Ac levels
[2]; MV4-11 s.c., 10 mg/kg i.p. daily, 2 weeks
  tumor growth: very close to significance
[2]; day 0
  Tumor volume: 0
[2]; day 7
  Tumor volume: 3.193
  body weight of mice: 20.3 and 18.1 and 19.6 (2×) and 20.5 and 18.3 and 21.6 and 18.4 and 21 and 20.7
[2]; day 9
  Tumor volume: 111.805 and 139.808 and 128.905 and 58.5153 and 61.4614 and 71.8536 and 82.1349 and 57.0445 and 0 and 108.84
  body weight of mice: 20.7 (2×) and 19.1 (2×) and 20.2 and 19.2 and 20.4 (2×) and 18.9 and 20.6
[2]; day 12
  Tumor volume: 294.457 and 409.686 and 535.985 and 179.87 and 403.211 and 161.575 and 360.839 and 457.558 and 8.3776 and 264.463
  body weight of mice: 22.2 (2×) and 19.1 and 21.6 and 20 and 22.4 and 20.6 and 23 and 20.1 and 22.6
[2]; day 14
  Tumor volume: 459.841 and 410.79 and 840.745 and 257.398 and 607.597 and 355.301 and 487.51 and 302.43 and 18.6928 and 395.414
  body weight of mice: 22.1 (2×) and 19.1 and 20.3 and 22.6 (3×) and 20.9 and 23.1 and 19.5
[2]; after in vivo treatment, subcutaneous MV4-11 mouse model, western blot, individual tumors
  Relative H3Ac/H3 total levels: 0.9852 and 1.143 and 1.277 and 1.092 and 1.163 and 1.09
[2]; day 1
  body weight of mice: 21.9 and 20.2 and 23.1 and 24.4 (2×) and 23 and 20.9 and 24.3 and 21.3 and 23.6
[2]; day 5, in g (unit assumed)
  body weight of mice: 20.4 and 18.7 and 20.7 and 21.6 and 21.5 and 19 and 21.7 and 18.8 and 21.2 and 21
[2]; day 16
  body weight of mice: 21 (2×) and 19.6 and 22 and 21.9 and 20.1 and 24.8 and 20.6 and 22.3 (2×)
[2]; tumors of the subcutaneous MV4-11 model, q-PCR, individual tumors
  CD11b expression, log10 (2-ΔΔCt): 1.258 and 2.58 and 3.158 and 0.925
[3]; ML-2 s.c., 10 mg/kg i.p.
  CD11b expression in explanted tumors: significant increase in CD11b expression
  H3Ac levels in tumors: increase in H3Ac levels
[3]; ML-2 s.c., 10 mg/kg i.p., 5 days on/2 off, 3 weeks
  tumor growth: inhibited tumor growth significantly
[3]; day 0, in mm³
  Tumor volume: 0
[3]; day 8
  Tumor volume: 50.29 and 0 (2×) and 44.4222 and 26.1593 and 17.7985 and 33.6927 and 34.1731
  body weight of mice: 23 and 21.7 (2×) and 22.6 and 22.9 and 19.8 and 23.2 and 21.8
[3]; day 11, in mm³
  Tumor volume: 57.5494 and 54.0642 and 29.9608 and 34.453 and 70.3613 and 12.6567 and 13.356 and 62.0802
[3]; day 13, in mm³
  Tumor volume: 71.0807 and 75.9644 and 34.9942 and 17.4964 and 64.0599 and 59.7475 and 31.61 and 81.1976
[3]; day 15, in mm³
  Tumor volume: 260.999 and 204.675 and 90.5639 and 88.4341 and 135.48 and 171.734 and 101.038 and 206.002
[3]; day 18, in mm³
  Tumor volume: 480.691 and 730.912 and 126.029 and 148.778 and 375.191 and 457.823 and 357.768 and 468.956
[3]; day 20, in mm³
  Tumor volume: 765.508 and 824.168 and 527.843 and 397.65 and 611.294 and 688.039 and 576.047 and 641.268
[3]; after in vivo treatment, subcutaneous ML-2 mouse model, western blot, individual tumors
  Relative H3Ac/H3 total levels: 1.215 and 1.184 and 2.112 and 1.745 and 1.414 and 2.588
[3]; day 4, in g (unit assumed)
  body weight of mice: 25.5 and 22.7 and 24.1 and 24.4 and 23.6 and 21.4 and 26.1 and 23.7
[3]; day 6, in g (unit assumed)
  body weight of mice: 24.2 and 22.1 and 23.5 and 23 and 22.4 and 20.6 and 24.7 and 22.8
[3]; day 11, in g (unit assumed)
  body weight of mice: 25 and 22 and 24 and 24.2 and 22.6 and 21.1 and 24.3 and 21.9
[3]; day 13, in g (unit assumed)
  body weight of mice: 24.5 and 21.9 and 23.2 and 22.6 and 22.9 and 21.2 and 24.7 and 22.3
[3]; day 15
  body weight of mice: 24.9 and 22.5 and 22.9 and 22.2 (2×) and 21.3 and 24.8 and 22.1
[3]; day 18, in g (unit assumed)
  body weight of mice: 24.7 and 23.2 and 23.6 and 22 and 23 and 21.6 and 24.9 and 23.5
[3]; day 20
  body weight of mice: 24.4 and 23.5 and 23.1 (2×) and 20.8 and 21.2 and 25.5 and 23.3
[3]; tumors of the subcutaneous ML-2 model, individual tumors (Fig 3C)
  CD11b expression from tumors measured by q-PCR: 4.258 log10 (2-ΔΔCt) and 6.115 log10 (2-ΔΔCt) and 1.258 log10 (2-ΔΔCt) and 2.581 log10 (2-ΔΔCt) and 3.258 log10 (2-ΔΔCt)
[4]; MOLM-13 i.v., 10 mg/kg i.p., 5 days on/2 off, 2 weeks
  overall survival (OS): not having observed an increase in OS
[4]; day 4
  Body weight: 22.8 and 24 (2×) and 25 and 23.7 and 22.6 (2×) and 23.6 and 23 and 25.3
[4]; day 6, in g (unit assumed)
  Body weight: 23.1 and 23.8 and 23.5 and 25 and 24.1 and 23.2 and 23 and 22.6 and 22 and 26.2
[4]; day 8
  Body weight: 22 (2×) and 23.1 and 23.6 and 24.1 and 23.2 and 22.9 and 22.7 and 22.6 and 25.8
[4]; day 11
  Body weight: 21.7 and 22.4 and 23 and 24.4 and 22.3 and 22.8 and 22.2 (2×) and 21.4 and 24.5
[4]; day 13
  Body weight: 22.1 (2×) and 23 and 23.1 and 24 and 22.7 and 22.9 and 22.3 and 21.2 and 24.8
[5]; MV4-11 i.v., 10 mg/kg i.p.
  CD11b in blood samples: statistically significant increase in CD11b
[5]; MV4-11 i.v., 10 mg/kg i.p., 5 days on/2 off, 7 weeks
  overall survival (OS): increased overall survival
[5]; day 20
  body weight of mice: 26 (2×) and 24.2 and 24.3 and 23.2 and 24.5 (2×) and 25.1 and 24.8 and 27 and 25.7 and 24
[5]; day 23
  body weight of mice: 26.5 and 24.3 (3×) and 24.7 and 23.9 and 25.1 and 25.2 and 24.9 and 24.6 and 27.6 and 26.2
[5]; day 25
  body weight of mice: 26.4 and 24.4 and 24.5 and 23.9 and 24.8 (2×) and 25.1 (2×) and 23.7 and 27.9 and 26.1 and 24.2
[5]; day 28
  body weight of mice: 25.9 and 24.3 and 24.1 (2×) and 22 and 24.6 (2×) and 25.3 and 25.1 and 27.9 and 26.2 and 24.2
[5]; day 30
  body weight of mice: 26.4 and 24 (2×) and 23.8 and 20.4 and 24.3 and 25 and 24.7 and 24.2 and 27.6 and 25.5 and 24.5
[5]; day 31
  body weight of mice: 25.8 and 24.8 (2×) and 24.4 and 22.9 and 25.7 and 24.5 and 23.7 and 27.3 and 24.6 and 24.7
[5]; day 35
  body weight of mice: 26.1 (2×) and 23.9 and 23.7 and 24.1 and 25.9 and 24.3 and 24.7 and 26.6 and 25
[5]; day 37
  body weight of mice: 26.5 and 24.6 and 24.4 and 25 (3×) and 27.2 (2×) and 27.7 and 27
[5]; day 42
  body weight of mice: 25.9 and 24.4 and 22.5 and 24.3 (2×) and 27 and 25.2 and 26.9 and 27.3
[5]; mice engrafted intravenously with MV4-11 cells, individual mice (Fig 3E)
  CD11b levels in blood samples: 7.18% and 15.3% and 22.1% and 21.14% and 13% and 34.5% and 22% and 9.14% and 7.78%
[5]; mice engrafted with MV4-11 cells intravenously, individual mice (Fig 3D)
  Survival time (Kaplan-Meier, event = 1): 32 days and 46 days and 48 days and 51 days and 53 days and 54 days
